Patent publication US20180228743A1, “COMPOUNDS AND METHODS OF PROMOTING MYELINATION” (Case Western Reserve University, priority 2016, published 2018)
Values joined by “and” are separate entries in the source; they are usually repeats but may differ in a detail not shown here. Equal values may be shown once. Where a name gives a salt, the structure may show the parent alone. Read-outs that look alike come from different tables or passages of the source.

Legend:
[1] = system: LPC-lesioned spinal cord; test: LPC focal demyelination of spinal cord, remyelination histology; assay type: in vivo, mouse; settings: ifenprodil 10 mg per kg, tamoxifen 2 mg per kg, daily intraperitoneal, 8 days from day 4 after lesion
[2] = system: OPCs; test: GC/MS-based sterol profiling in OPCs; assay type: cell-based, mouse; settings: for sterol levels / sterol intermediate accumulation in OPCs: 24 h treatment (siRNA 96 h)
[3] = system: human glioma cells (GBM528); test: GC/MS sterol profiling in human glioma cell line; assay type: cell-based; settings: 24 h
[4] = biological target: T1, EBP (Mus musculus, UniProt P70245); test: EBP enzymatic assay (GC/MS); assay type: biochemical; settings: 10 μM, zymostenol 25 μM
T1 construct: active EBP was obtained from mouse microsomes; from tissue
T1 sequence (P70245 1-230): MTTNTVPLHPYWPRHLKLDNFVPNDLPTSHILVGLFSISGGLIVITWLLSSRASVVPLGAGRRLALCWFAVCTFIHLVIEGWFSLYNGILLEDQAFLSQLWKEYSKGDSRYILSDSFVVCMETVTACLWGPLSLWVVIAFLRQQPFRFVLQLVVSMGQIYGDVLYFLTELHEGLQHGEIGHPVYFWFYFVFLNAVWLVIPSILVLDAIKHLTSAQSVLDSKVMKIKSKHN

[5] = system: EpiSC-derived OPCs; test: In vitro phenotypic screening of OPCs (MBP+ oligodendrocytes at 72 h); assay type: cell-based, mouse; settings: for oligodendrocyte formation in combination with ketoconazole: ketoconazole 2.5 μM (maximally effective dose)
[6] = system: EpiSC-derived OPCs; test: High-throughput screening of 3,000 bioactive small molecules for MBP+ oligodendrocyte formation from OPCs; assay type: cell-based, mouse; settings: 2 μM, 72 h; for fold induction at 2 µM: Mus musculus, relative to DMSO controls of the same plate, read-out: fold-change in % MBP + oligodendrocytes; for % 0ligos: MBP+ oligodendrocytes
Description: Plates were imaged on the Operetta High Content Imaging and Analysis system (PerkinElmer) and a set of 6 fields captured from each well resulting in an average of 1200 cells being scored per well. Analysis (PerkinElmer Harmony and Columbus software) began by identifying intact nuclei stained by DAPI; that is, those traced nuclei that were larger than 300 μm^2 in surface area. Each traced nucleus region was then expanded by 50% and cross-referenced with the […] (MBP) stain to identify oligodendrocyte nuclei, and from this the percentage of oligodendrocytes was calculated. In some experiments, the total process length of MBP+ oligodendrocytes was calculated as previously described.
EpiSC-derived OPCs were grown and expanded in poly-ornithine and laminin-coated flasks before harvesting for plating. Cells were dispensed in differentiation media supplemented with Noggin (R&D Systems; 100 ng/ml), Neurotrophin 3 (R&D Systems; 10 ng/ml), cAMP (Sigma; 50 μM), and IGF-1 (R&D Systems; 100 ng/ml)) using a Biotek EL406 Microplate Washer Dispenser (Biotek) equipped with 5 μL dispense cassette (Biotek), into poly-D-lysine/laminin (Sigma, L2020; 4 μg/ml)-coated sterile, 384-well, CellCarrier ultra plates (PerkinElmer), to a final density of 12,500 cells per well and allowed to attach for 45 min before addition of drug. A 3 mM stock of bioactive compound library in dimethylsulphoxide (DMSO) were prepared in an Abgene storage 384-well plate (ThermoFisher Scientific; AB1055). These were added to assay plates using a 50 nL solid pin tool attached to Janus automated workstation (Perkin Elmer), resulting in a final screening concentration of 2 μM. Cells were incubated at 37° C. for 1 hour and then T3 (Sigma; 40 ng/ml) was added to all wells except negative controls, to which FGF (20 ng/ml) was added instead. Negative controls and T3-alone were included in each assay plate. After incubation at 37° C. for 72 h, cells were fixed, washed and stained similar to 96-well OPC assay protocol, although all the washing steps were performed using a Biotek EL406 Microplate Washer Dispenser (Biotek) equipped with a 96-well aspiration manifold. Cells were stained with DAPI (Sigma; 1 μg/ml) and MBP antibody (Abcam, ab7349; 1:100). Plates were imaged on the Operetta High Content Imaging and Analysis system (PerkinElmer) and a set of 4 fields captured from each well resulting in an average of 700 cells being scored per well. Analysis was performed as in High-Content Imaging and Analysis, above. All plates for the primary screen were processed and analyzed simultaneously to minimize variability. Molecules causing more than 20% reduction in nuclear count relative to DMSO control wells were removed from consideration, and hits were called on the basis of largest fold-increase in percentage of MBP+ oligodendrocytes relative to DMSO controls within the same plate.

[7] = biological target: T2, rat CYP51 (Rattus norvegicus, UniProt Q64654); test: CYP51 enzymatic assay (LC/MS quantitation of FF-MAS); assay type: biochemical; settings: lanosterol 50 μM, 30 minutes; read-out: IC50 for inhibition of rodent CYP51 in vitro
T2 construct: purchased Cypex, Inc
T2 sequence (Q64654 1-503): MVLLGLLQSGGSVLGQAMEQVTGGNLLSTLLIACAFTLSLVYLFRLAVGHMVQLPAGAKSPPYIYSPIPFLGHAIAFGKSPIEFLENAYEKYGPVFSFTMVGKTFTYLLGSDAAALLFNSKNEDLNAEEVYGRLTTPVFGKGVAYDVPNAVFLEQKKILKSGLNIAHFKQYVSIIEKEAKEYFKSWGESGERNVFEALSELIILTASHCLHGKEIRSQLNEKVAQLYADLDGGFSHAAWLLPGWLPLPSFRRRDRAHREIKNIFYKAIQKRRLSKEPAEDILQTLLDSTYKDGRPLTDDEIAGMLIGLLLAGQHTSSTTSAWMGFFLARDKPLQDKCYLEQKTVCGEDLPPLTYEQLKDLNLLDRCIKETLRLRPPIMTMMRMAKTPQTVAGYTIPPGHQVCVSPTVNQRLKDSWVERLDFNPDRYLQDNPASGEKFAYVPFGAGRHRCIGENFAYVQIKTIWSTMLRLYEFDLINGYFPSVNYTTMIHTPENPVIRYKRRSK
Method: Finally, 15 μl of each reaction/isopropanol mixture was injected onto a SCIEX Triple Quad 6500 LC-MS/MS system using an APCI ion source in positive ion mode with a Shimadzu UFLC-20AD HPLC and a Phenomenex

[8] = system: human induced pluripotent stem cell-derived cortical spheroids; test: GC/MS sterol profiling in human cortical spheroids; assay type: cell-based; settings: 2 μM, 24 h
[9] = mouse; cited from earlier work
[10] = system: mouse brain; test: Analysis of mouse brain sterol levels (GC/MS); assay type: in vivo; settings: miconazole 10 mg per kg, ifenprodil 10 mg per kg, tamoxifen 2 mg per kg; 3 days intraperitoneal dosing
Method: Mice were anaesthetized with isoflurane and perfused with phosphate buffered saline to remove blood from the brain. Brains were collected and flash frozen using liquid nitrogen. The samples were pulverized and 50-100 milligrams of tissue were collected for further processing. A modified Folch protocol was used for extraction of sterols. Briefly, samples were resuspended in a 2:1 chloroform/methanol mixture and homogenized. Cell debris was removed by centrifugation at 4000 g for 10 min. The solution was dried under air and resuspended in hexane with a cholesterol-D7 standard and dried again. Lipids were derivatized with 70 al of bis(trimethylsilyl)trifluoroacetamide; 2 μls were injected and analyzed by GC/MS as described above.

[11] = system: T47D cells; settings: 5 days
[12] = system: EpiSC-derived OPCs; test: Oligodendrocyte formation on electrospun microfibers; assay type: cell-based, mouse; settings: 14 days
Method: A 12-well plate containing Mimetex aligned scaffold (microfiber plate, AMSBIO, AMS.TECL-006-1X, Electrospun poly-L-lactide Scaffold, […] cell crown inserts) was prepared as previously described. Briefly, inserts were sterilized with 70% ethanol and washed with PBS before being coated with polyornithine and laminin. After laminin coating, 100,000 cells/mL of EpiSC-derived OPCs were plated in differentiation medium. After 24 h the media was replaced with fresh media containing small molecule treatments. Every 48 h the media was replaced with fresh compound containing media for a total of 14 days. Plates were fixed with 4% PFA, permeabilized with 0.1% Triton X-100, and blocked with 10% donkey serum (v/v) in PBS for 60 min. Plates were stained for MBP (Abcam, ab7349; 1:100) and DAPI staining (Sigma; 5 μg/ml). After staining, the inserts were moved into new 12-well plate and covered with 2 mL of PBS before imaging in Operetta high content Imaging and analysis system. […] Analysis (PerkinElmer Harmony and Columbus software) identified intact nuclei stained by DAPI and calculated the MBP signal intensity per cell per well. Microfiber insert tracking images were taken using a Leica DMi8 with a 20× Dry/NA 0.40 objective. Microfiber plate inserts were mounted using Flouromount-G (SouthernBiotech) and allowed to partially harden before coverslips were added and the insert ring was removed. Confocal images were obtained on a Leica SP8 confocal scanning microscope, with 40× oil/NA 1.30 objective. Confocal stacks of 0.336 μm z-steps were taken at 1024×1024. Each fluorophore was excited sequentially and all contrast and brightness changes were applied consistently between images.

**Q.** For CC/C(=C(\c1ccccc1)c1ccc(OCCN(C)C)cc1)c1ccccc1 [tamoxifen, Tamoxifen], which “remyelination of LPC lesion” value [1] is on record?
**A.** Its value is “remyelination was widespread throughout the lesion”.

**Q.** And the “sterol levels / sterol intermediate accumulation in OPCs” value [2]?
**A.** Its value is “induced accumulation of zymostenol and zymosterol and decreased basal sterol levels”.

**Q.** And the “sterol intermediate accumulation in human glioma cell line” value [3]?
**A.** Its value is “caused accumulation of the expected sterol intermediates”.

**Q.** What about the “inhibition of EBP enzymatic activity” value [4] of the same molecule?
**A.** The value was “clear inhibition”.

**Q.** And the “oligodendrocyte formation in combination with ketoconazole” value ([5]; 72 h)?
**A.** The value was “did not enhance differentiation above levels seen for ketoconazole alone”.

**Q.** What does the source list for Clc1ccccc1C(c1ccccc1)(c1ccccc1)n1ccnc1 [Clotrimazole]?
**A.** cell viability (% relative to DMS0) [6]: 112.83% and 122.50%; fold induction at 2 µM [6]: 3.85; IC50 [7]: 0.3 to 0.7 µM

**Q.** What does the source list for CC(C(O)c1ccc(O)cc1)N1CCC(Cc2ccccc2)CC1 (stereo not shown) [lfenprodil Tartrate]?
**A.** remyelination of LPC lesion [1]: remyelination was widespread throughout the lesion; 8,9-unsaturated sterol accumulation in human cortical spheroids [8]: led to 8,9-unsaturated sterol accumulation; sterol intermediate accumulation in human glioma cell line [3]: caused accumulation of the expected sterol intermediates; blood brain barrier penetration [9]: known to cross the mouse blood brain barrier; cell viability (% relative to DMS0) [6]: 103.79%; cell viability (% relative to DMS0) ([6]; listed as lfenprodil tartrate): 106.02%; fold induction at 2 µM [6]: 4.89; accumulation of 8,9-unsaturated sterols in brain [10]: induced significant accumulation of 8,9-unsaturated sterols in the brain

**Q.** For OCCOCCN1CCN(C(c2ccccc2)c2ccc(Cl)cc2)CC1 (stereo not shown) [Hydroxyzine 2HCl], which “cell viability (% relative to DMS0)” value [6] is on record?
**A.** The value was 134.19%.

**Q.** And the “% 0ligos” value [6]?
**A.** Its value is 40.63%.

**Q.** What about the fold induction at 2 µM [6] of the same molecule?
**A.** Its fold induction at 2 µM is 4.8.

**Q.** What about the “inhibition of EBP enzymatic activity” value [4] of the same molecule?
**A.** Its value is “directly inhibiting EBP enzymatic activity”.

**Q.** Which “enzyme inhibited in OPCs as indicated by sterol profile” value ([2]; 24 h) does the source give for CN(C)CCOc1ccc(/C(=C(/CCCl)c2ccccc2)c2ccccc2)cc1 [toremifene, Toremifene] here?
**A.** The value was “inhibited EBP”.

**Q.** And the “antiestrogen effect on estrogen-dependent growth” value [11]?
**A.** The value was “comparable antiestrogen effects”.

**Q.** And the “formation of MBP+ oligodendrocytes from OPCs” value (“formation … from OPCs” for short) ([5]; 72 h)?
**A.** The value was “enhanced MBP+ oligodendrocyte generation over a wide dose range”.

**Q.** Which “sterol levels / sterol intermediate accumulation in OPCs” value [2] does the source give for Cc1cc(C)c(CNC(=O)c2cc(-c3ccc(CN4CCOCC4)cc3)cc3c2cnn3C2CCCC2)c(=O)[nH]1 [EPZ005687] here?
**A.** The value was “uniquely caused accumulation of zymosterol and zymostenol in OPCs”.

**Q.** And the “cell viability (% relative to DMS0)” value [6]?
**A.** The value was 91.36%.

**Q.** And the “% 0ligos” value [6]?
**A.** The value was 50.00%.

**Q.** And the fold induction at 2 µM [6]?
**A.** The fold induction at 2 µM was 5.9.

**Q.** And the “inhibition of EBP enzymatic activity” value [4]?
**A.** Its value is “directly inhibiting EBP enzymatic activity”.

**Q.** What about the “formation … from OPCs” value ([5]; 72 h) of the same molecule?
**A.** The value was “enhanced oligodendrocyte formation in both our mouse epiblast stem cell-derived OPCs and mouse primary OPCs”.

**Q.** For CCC(C)(C)c1ccc(CC(C)CN2C[C@@H](C)O[C@@H](C)C2)cc1 (stereo partly shown) [amorolfine, Amorolfine], which “MBP+ oligodendrocyte tracking along and wrapping of microfibers” value [12] is on record?
**A.** The value was “significantly enhanced MBP+ oligodendrocyte tracking along and wrapping of the microfibers”.

**Q.** And the “formation … from OPCs” value ([5]; 72 h)?
**A.** Its value is “enhanced formation of MBP+ oligodendrocytes”.

**Q.** Which “sterol levels / sterol intermediate accumulation in OPCs” value [2] does the source give for CN1[C@@H]2CC[C@H]1C[C@@H](OC(c1ccccc1)c1ccccc1)C2 [benztropine, Benztropine] here?
**A.** The value was “induced accumulation of zymostenol and zymosterol and decreased basal sterol levels”.

**Q.** And the “inhibition of EBP enzymatic activity” value [4]?
**A.** The value was “clear inhibition”.

**Q.** What about the “oligodendrocyte formation in combination with ketoconazole” value ([5]; 72 h) of the same molecule?
**A.** Its value is “did not enhance differentiation above levels seen for ketoconazole alone”.

**Q.** What does the source list for Clc1ccc(COC(Cn2ccnc2)c2ccc(Cl)cc2Cl)c(Cl)c1 (stereo not shown) [miconazole, Miconazole]?
**A.** 8,9-unsaturated sterol accumulation in human cortical spheroids [8]: led to 8,9-unsaturated sterol accumulation; sterol intermediate accumulation in human glioma cell line [3]: caused accumulation of the expected sterol intermediates; IC50 [7]: 0.3 to 0.7 µM

**Q.** With OCCOc1ccc(/C(=C(/CCCl)c2ccccc2)c2ccccc2)cc1 [ospemifene, Ospemifene] as the molecule, how does the “enzyme inhibited in OPCs as indicated by sterol profile” value [2] read?
**A.** The value was “did not inhibit EBP in OPCs”.

**Q.** And the “antiestrogen effect on estrogen-dependent growth” value [11]?
**A.** Its value is “comparable antiestrogen effects”.

**Q.** What about the “formation … from OPCs” value [5] of the same molecule?
**A.** The value was “did not enhance differentiation to MBP+ oligodendrocytes”.

**Q.** For COc1ccc(S(=O)(=O)N2CCC(N3CCC(C)CC3)CC2)cc1 [TASIN-1], which “inhibition of EBP enzymatic activity” value [4] is on record?
**A.** The value was “clear inhibition”.

**Q.** And the “MBP+ oligodendrocyte tracking along and wrapping of microfibers” value [12]?
**A.** Its value is “significantly enhanced MBP+ oligodendrocyte tracking along and wrapping of the microfibers”.

**Q.** What about the “formation … from OPCs” value ([5]; 72 h) of the same molecule?
**A.** The value was “enhanced formation of MBP+ oligodendrocytes”.

**Q.** Which results are given for CC(=O)N1CCN(c2ccc(OCC3COC(Cn4ccnc4)(c4ccc(Cl)cc4Cl)O3)cc2)CC1 (stereo not shown) [Ketoconazole]?
**A.** % 0ligos [6]: 52.77%; IC50 [7]: 0.3 to 0.7 µM; MBP+ oligodendrocyte tracking along and wrapping of microfibers [12]: significantly enhanced MBP+ oligodendrocyte tracking along and wrapping of the microfibers
